The data set is described as follows: In vitro release study of EVE-PLGA microsphere (sample-and-separate method). It is filed as physicochemical. Conditions: during in vitro release study, release medium pH 7.4, 37° C. On the procedure:
The in vitro release study was carried out by a sample-and-separate method. Briefly, 20 mg of microsphere sample (n=3) was taken in a 100 mL flask and dispersed in 50 mL of release medium (0.5% Tween 20 and 0.1% sodium azide in phosphate buffered saline (PBS) at pH 7.4). The flasks were placed in an orbital agitating incubator at 37° C. and shaken at 100 rpm. At certain time points (E10PA53 at 1, 3, 7, 14, 21, 28, 35, 42, 49, 56 days and E10PE77 at 1, 3, 7, 14, 21, 28, 35, 42, 49, 56, 63, 70, 77, 84, 91 days), all medium was collected and filtered on filter paper. The filtered pellet was freeze-dried for 24 h and dissolved in acetonitrile. The content of the unreleased EVE was then analyzed by HPLC as described above. Since EVE was known to be degradable in aqueous solution as a free form in a time-dependent manner, the EVE content was analyzed in the microsphere residue.
The microspheres were also prepared using a membrane with a pore size of 50 μm, which produced microspheres having a diameter size larger than 75 μm. To analyze the release behavior of EVE from the microspheres, an in vitro release study was performed by a sample-and-separate method at physiological conditions. […] The content of EVE was determined in the remaining microsphere after collecting whole samples at certain time points to avoid degradation-related loss of EVE in an aqueous environment.

Take `CO[C@H]1C[C@@H]2CC[C@@H](C)[C@@](O)(O2)C(=O)C(=O)N2CCCC[C@H]2C(=O)O[C@H]([C@H](C)C[C@@H]2CC[C@@H](OCCO)[C@H](OC)C2)CC(=O)[C@H](C)/C=C(\C)[C@@H](O)[C@@H](OC)C(=O)[C@H](C)C[C@H](C)/C=C/C=C/C=C/1C` [EVE, everolimus]: the “stability of EVE in the microsphere” value is given as “no change in the stability”.

(Values after patent publication US12396951B2, “Prevention of local tumor recurrence following surgery using sustainedand/or delayed release of medicaments contained in micro-particles” (UPEXMED CO. LTD., priority 2016, dated 2025).)
